Experimental data published in patent US8420776B2, “Ube2G2 binding domain in the ubiquitin ligase gp78 and methods of use thereof” (The United States of America, as Represented by the …, priority 2004, dated 2013).
Entries after “also recorded” stand apart in the source; their conditions may differ. Ends that are not written are not given here. Peptide text beside a SMILES is read from it. * marks the point of attachment. Cbz = O=C(OCc1ccccc1)*

How the values were obtained:
Ube2G2/MmUbc7 = target: T1, Ube2G2/MmUbc7 (Mus musculus, UniProt P60605); test: GST pull-down binding of in vitro translated 35S-Met Ube2G2/MmUbc7; parameters: species or system human; settings: GST fusion pull-down; 35S-Met labeled E2
T1 construct: made in house; host or cells: coupled in vitro transcription/translation in rabbit reticulocyte lysate or wheat germ
T1 sequence (P60605 1-165): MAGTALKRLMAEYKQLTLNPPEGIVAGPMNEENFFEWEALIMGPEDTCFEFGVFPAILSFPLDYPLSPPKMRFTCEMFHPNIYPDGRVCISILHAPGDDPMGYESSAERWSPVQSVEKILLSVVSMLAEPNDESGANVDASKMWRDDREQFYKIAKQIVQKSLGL
Protocol: GST fusions were purified from E. Coli. Binding was carried out using equi-molar amount of fusion proteins measured by Commassie blue staining. Generally, 20 picomoles/sample were used. In vitro translated E2 was generated by coupled transcription and translation using 35S methionine in either wheat germ or rabbit reticulocyte lysate. […] Beads were washed with binding buffer and resolved by SDS-PAGE under reducing conditions. Analysis was by Storm PhosphoImager (Applied Biosystems, Foster City, Calif.). Direct binding assays used wild type His6-MmUbc7 (His6-Ube2G2) and Glutathione-sepharose bound GST fusions. Beadbound GST protein was incubated with 100 ng purified His6-MmUbc7 in binding buffer and washed and eluted as above. After transfer to Hybond-P (Amersham Biosciences) binding was assessed with anti-His6 followed by Enhanced Chemiluminescence ECL; Pierce).
The E2 enzymes were in vitro translated using wheat germ.
GST fusion proteins encoding the regions indicated in FIGS. 3A-3C were evaluated for the ability to bind to Ube2G2/MmUbc7 that had been in vitro transcribed and translated in rabbit reticulocyte lysate. gp78C represents the entire C-terminal cytoplasmic domain of gp78 (amino acid residues 309-643 of SEQ ID NO:2).

Myc-Ube2G2 = target: T2, Myc-Ube2G2 (Mus musculus, UniProt P60605); test: Co-immunoprecipitation with co-expressed Myc-Ube2G2 in cells; format: cell-based; settings: anti-Myc IP, anti-GFP IB
T2 construct: expressed in transfected cells; host or cells: HEK 293T
T2 sequence (P60605 1-165): T1 sequence (P60605 1-165)
Protocol: (§1) Transfections of HT1080, NIH 3T3 and HEK 293T cells were carried out ˜24 hr after plating using Polyfect (Qiagen, Valencia, Calif.) and cells harvested after ˜48 hr. J558 cells were transfected by electroporation using Bio-rad GENE pulser II at settings of 250 v, 950uF. Vector without insert was used to equalize total plasmid. In most experiments 0.15 μg of pEGFP-C1 served as an internal control. For experiments not involving immunoprecipitation, 6×10^5 cells were plated in 6 well plates and cell lysis was with Mammalian Protein Extraction Reagent (Pierce). For immunoprecipitation, 2.4×10^6 cells were seeded in 100 mm dishes and cells were lysed in RIPA buffer (1×PBS, 1% Nonidet P40. 0.5% sodium deoxycholate, 0.1% SDS). Lysis buffers were supplemented with Protease Inhibitor Cocktail (Sigma) and 10 mM iodoacetamide. Supernatants were analyzed after a 10,000×g centrifugation using standard techniques for immunoprecipitation, SDS-PAGE, immunoblotting and ECL. Treatment of cells with MG132 (Sigma) was at 50 μM for eight hr. Cycloheximnide was used at 50 μg/ml. All cells were collected at the end of the six hr chase.
FIG. 5 depicts the results of immunoprecipitation of Ube2G2 (MmUbc7) from HEK 293T cells co-transfected with a plasmid encoding myc-tagged MmUbc7/Ube2G2 together with s plasmid encoding various forms of gp78. […]

ERAD substrate CD3-δ = test: CD3-δ level in co-transfected cells by immunoblotting; format: cell-based; settings: for effect on CD3-δ level (stabilization): co-transfection with CD3-δ, immunoblot
Protocol: as §1
FIG. 7 depicts the stabilization of CD3-δ protein in cells transfected with the G2BD, but not with the G2BD with amino acids 579-584 (of SEQ ID NO:2) mutated. HEK 293T cells were transfected with the ERAD substrate CD3-δ along with the indicated GFP fusions of gp78. The left and right sides are two separate experiments.
(§2) To test this, GFP fusions of either a minimal E2 binding domain (GFP-574-611) or a more extended region that includes the C-terminus of gp78 (GFP-574-643) were evaluated (FIG. 21A). […] To assess this further, the C-terminal region of gp78 was fused to the eight amino acid Flag tag. […] Mdm2 is a RING finger E3 for both itself and p53 that is neither an ERAD substrate nor known to utilize Ube2G2 as an E2. […] To establish with certainty that the effect observed with expression of the Ube2G2 binding site is a consequence of binding endogenous E2, and not due to other unanticipated effects, cells were co-transfected with increasing amounts of Ube2G2 (FIG. 21C, lanes 3 and 4). […] These findings clearly establish that the isolated E2 binding site has the potential to markedly alter ERAD of CD3-δ. To ensure the effect observed was not peculiar to one substrate, TCR-α was evaluated (FIG. 21D).

ERAD substrate TCR-α = test: TCR-α level in co-transfected cells; format: cell-based; settings: co-transfection with TCR-α
Protocol: as §1
FIG. 9 depicts the stabilization of endogenous TCRα by the G2BD. TCR-α is a subunit of the T cell antigent receptor and an ERAD substrate. TCR-α was stabilized by the region implicated in Ube2G2 binding.
as §2

Mdm2 = Mdm2 level in co-transfected cells; format: cell-based; settings: cells transfected with CD3-δ and Mdm2
Protocol: as §1
To test this, GFP fusions of either a minimal E2 binding domain (GFP-574-611) or a more extended region that includes the C-terminus of gp78 (GFP-574-643) were evaluated (FIG. 21A). […] To ensure the effect observed was not peculiar to one substrate, TCR-α was evaluated (FIG. 21D).

gp78 = gp78 level in transfected cells by immunoblotting; format: cell-based
Protocol: as §1, with “All cells were collected at the end of the six hr chase.” left out
gp78 is degraded in a proteasome-dependent manner, and deletion of the entire cytoplasmic domain results in its stabilization. […] To determine the significance of the RING finger, Cue domain and Ube2G2 binding site on gp78 stability, mutations of each were evaluated within full-length gp78. […]

[1] = target: T3, lysine 48-linked (K48) tetra-ubiquitin (Homo sapiens, UniProt P0CG47); test: Tetra-ubiquitin binding to GST fusions; settings: anti-ubiquitin immunoblot
T3 construct: 1 μg K48 tetra-ubiquitin produced as described (Piotrowski et al., 1997); made in house
Protocol: GST fusions were purified from E. Coli. Binding was carried out using equi-molar amount of fusion proteins measured by Commassie blue staining. Generally, 20 picomoles/sample were used. In vitro translated E2 was generated by coupled transcription and translation using 35S methionine in either wheat germ or rabbit reticulocyte lysate. Binding assays using in vitro translated E2 was carried out by incubating GST protein pre-bound to Glutathione-sepharose 4B with […] of ^35S-methionine labeled E2 in binding buffer (25 mM Tris-HCl, pH 7.4; 50 mM NaCl, 5 mM DTT; and 0.5% NP-40) overnight at 4° C. Beads were washed with binding buffer and resolved by SDS-PAGE under reducing conditions. Analysis was by Storm PhosphoImager (Applied Biosystems, Foster City, Calif.). Direct binding assays used wild type His6-MmUbc7 (His6-Ube2G2) and Glutathione-sepharose bound GST fusions. Beadbound GST protein was incubated with 100 ng purified His6-MmUbc7 in binding buffer and washed and eluted as above. After transfer to Hybond-P (Amersham Biosciences) binding was assessed with anti-His6 followed by Enhanced Chemiluminescence ECL; Pierce). Ubiquitin binding studies were performed with binding and washing as above using 1 μg K48 tetra-ubiquitin produced as described (Piotrowski et al., 1997). Detection was by anti-ubiquitin immunoblotting.

“574-608: GST fusion of amino acids 574-608 of gp78 (SEQ ID NO:2) (SADERQRMLVQRKDELLQQARKRFLNKSSEDDAAS; listed as Homo sapiens)” was tested, and the “binding to in vitro translated Ube2G2/MmUbc7” value (Ube2G2/MmUbc7) was “sufficient for binding to Ube2G2; also recorded: bound in vitro translated Ube2G2 comparably to the complete gp78 C-terminal tail”.

For “579-600: GFP fusion of amino acids 579-600 of SEQ ID NO:2 (QRMLVQRKDELLQQARKRFLNK; listed as Homo sapiens)”, the “binding of GFP fusion to co-expressed Myc-Ube2G2 in cells” value (Myc-Ube2G2) was “sufficient to bind Ube2G2 in cells”.

`CC(C)C[C@@H](C=O)NC(=O)[C@H](CC(C)C)NC(=O)[C@H](CC(C)C)NC(=O)OCc1ccccc1` [MG132, reference compound] (Cbz-Leu-Leu-Leu-aldehyde) was tested, and the “reversal of G2BD-induced CD3-δ stabilization by co-transfected Ube2G2” value (ERAD substrate CD3-δ; cells expressing Flag-tagged gp78 574-643, 2 or 4 μg Ube2G2 plasmid) was “blocked the effect of transfected Ube2G2”, the “effect on TCR-α level (stabilization)” value (ERAD substrate TCR-α) was “prevented degradation of TCR-α” and the “effect on Mdm2 level (stabilization)” value (Mdm2) was “led to Mdm2 stabilization”. The “effect of proteasome inhibitor on gp78 level” value (gp78) was “stabilized wild type gp78”.

In the case of “GFP-574-611E2-m2: GFP fusion of gp78 574-611 with the E2 binding site mutation of residues 579 to 584”, the “effect on CD3-δ level (stabilization)” value (ERAD substrate CD3-δ) is reported as “totally prevented this stabilization”, the “effect on CD3-δ level (stabilization)” value (ERAD substrate CD3-δ; listed as G2BD with amino acids 579-584 (of SEQ ID NO:2) mutated) is reported as “loss of this effect” and the “effect on TCR-α level (stabilization)” value (ERAD substrate TCR-α) is reported as “did not”.

“UBA-Cbl-b: GST fusion of the UBA of the RING finger E3 Cbl-b (NVDAKIAKLMGEGYAFEEVKRALEIAQNNVEVARSILREF; also: GST fusion partner, not in chain) [reference compound]” was tested, and the “binding of K48 tetra-ubiquitin” value [1] was “binds”.
